# From the Kinase Knowledgebase extract (Sharma et al. 2016)
# Target: MAPK14 (human) (UniProt Q16539)
# Test: Inhibition of MAPK14 Kinase Activity
# MAPK14 (human), sequence (Q16539 whole entry, looked up): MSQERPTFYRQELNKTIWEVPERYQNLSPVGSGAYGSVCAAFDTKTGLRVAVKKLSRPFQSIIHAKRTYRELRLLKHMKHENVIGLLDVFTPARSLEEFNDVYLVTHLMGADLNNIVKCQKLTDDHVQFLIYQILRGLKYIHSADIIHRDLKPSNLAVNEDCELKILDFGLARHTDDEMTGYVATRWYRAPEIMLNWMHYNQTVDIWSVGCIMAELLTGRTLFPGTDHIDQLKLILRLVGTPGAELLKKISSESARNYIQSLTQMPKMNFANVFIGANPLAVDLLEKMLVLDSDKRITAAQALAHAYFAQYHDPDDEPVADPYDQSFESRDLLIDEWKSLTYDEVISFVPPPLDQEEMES
row,Compound,IC50 [nM]
1,COCCn1c(SC)nc(-c2ccc(F)cc2)c1-c1ccnc(NC(=O)CCCCc2ccccc2)c1,115
2,COCCn1c(SC)nc(-c2ccc(F)cc2)c1-c1ccnc(NCCc2ccccc2)c1,26
3,COCCn1c(SC)nc(-c2ccc(F)cc2)c1-c1ccnc(NC(=O)CCc2ccc(C(C)(C)C)cc2)c1,2450
4,COCCn1c(SC)nc(-c2ccc(F)cc2)c1-c1ccnc(NC(=O)c2ccccc2)c1,244
5,COCCn1c(SC)nc(-c2ccc(F)cc2)c1-c1ccnc(NC(=O)Cc2ccccc2)c1,386
6,COCCn1c(SC)nc(-c2ccc(F)cc2)c1-c1ccnc(NC(=O)/C=C/c2ccccc2)c1,193
7,COCCn1c(SC)nc(-c2ccc(F)cc2)c1-c1ccnc(NC(=O)C(C)Oc2ccccc2)c1 (stereo not given),103
8,COCCn1c(SC)nc(-c2ccc(F)cc2)c1-c1ccnc(NC(=O)CCc2cccc(OC)c2OC)c1,91
9,COCCn1c(SC)nc(-c2ccc(F)cc2)c1-c1ccnc(NC(=O)CCc2ccc(OC)cc2OC)c1,178
10,COCCn1c(SC)nc(-c2ccc(F)cc2)c1-c1ccnc(NC(=O)CC(C)c2ccccc2)c1 (stereo not given),60
11,COCCn1c(SC)nc(-c2ccc(F)cc2)c1-c1ccnc(NC(=O)CCc2ccccc2OC)c1,93
12,COCCn1c(SC)nc(-c2ccc(F)cc2)c1-c1ccnc(NC(=O)CCc2ccc(OC)c(OC)c2OC)c1,84
13,COCCn1c(SC)nc(-c2ccc(F)cc2)c1-c1ccnc(N)c1,1420
14,COCCn1c(SC)nc(-c2ccc(F)cc2)c1-c1ccnc(NC(=O)CCc2ccc(C)cc2)c1,90
15,COCCn1c(SC)nc(-c2ccc(F)cc2)c1-c1ccnc(NC(=O)CCc2ccc(S(C)(=O)=O)cc2)c1,220
16,COCCn1c(SC)nc(-c2ccc(F)cc2)c1-c1ccnc(NC(=O)CCc2ccc(OC)cc2)c1,48
17,COCCn1c(SC)nc(-c2ccc(F)cc2)c1-c1ccnc(NC(=O)[C@H]2C[C@@H]2c2ccccc2)c1,168
18,COCCn1c(SC)nc(-c2ccc(F)cc2)c1-c1ccnc(NCC(C)c2ccccc2)c1 (stereo not given),35
19,COCCn1c(SC)nc(-c2ccc(F)cc2)c1-c1ccnc(NC(=O)CCc2ccc(OC)c(OC)c2)c1,216
20,COCCn1c(SC)nc(-c2ccc(F)cc2)c1-c1ccnc(NC(=O)C(Oc2ccccc2)C(C)C)c1 (stereo not given),195
21,COCCn1c(SC)nc(-c2ccc(F)cc2)c1-c1ccnc(NC(=O)Cc2ccc(OC)cc2)c1,213
22,COCCn1c(SC)nc(-c2ccc(F)cc2)c1-c1ccnc(NC(=O)c2ccc(OC)cc2)c1,392
23,COCCn1c(SC)nc(-c2ccc(F)cc2)c1-c1ccnc(NC(=O)CCc2cc(OC)c(OC)c(OC)c2)c1,123
24,COCCn1c(SC)nc(-c2ccc(F)cc2)c1-c1ccnc(NC(=O)C[C@@H](C)c2ccccc2)c1,114
25,COCCn1c(SC)nc(-c2ccc(F)cc2)c1-c1ccnc(NC(=O)CCc2ccc(SC)cc2)c1,254
26,COCCn1c(SC)nc(-c2ccc(F)cc2)c1-c1ccnc(NC(=O)CCCc2ccccc2)c1,115
27,COCCn1c(SC)nc(-c2ccc(F)cc2)c1-c1ccnc(NC(=O)C(C)Cc2ccccc2)c1 (stereo not given),77
28,COCCn1c(SC)nc(-c2ccc(F)cc2)c1-c1ccnc(NC(=O)CCCc2ccc(OC)cc2)c1,97
29,COCCn1c(SC)nc(-c2ccc(F)cc2)c1-c1ccnc(NC(=O)CCc2cccc(OC)c2)c1,93
30,COCCn1c(SC)nc(-c2ccc(F)cc2)c1-c1ccnc(NC(=O)C[C@H](C)c2ccccc2)c1,133

# The remaining lines, values ahead:
row,IC50 [nM],Compound
1,1760,COCCn1c(SC)nc(-c2ccc(F)cc2)c1-c1ccnc(NC(=O)C(C)(C)C)c1
2,116,COCCn1c(SC)nc(-c2ccc(F)cc2)c1-c1ccnc(NC(=O)C2CCC2)c1
3,219,COCCn1c(SC)nc(-c2ccc(F)cc2)c1-c1ccnc(NC(=O)CC2CCCCC2)c1
4,108,COCCn1c(SC)nc(-c2ccc(F)cc2)c1-c1ccnc(NC(=O)CC2CCCC2)c1
5,63,COCCn1c(SC)nc(-c2ccc(F)cc2)c1-c1ccnc(NC(=O)CCc2ccccc2)c1
6,224,COCCn1c(SC)nc(-c2ccc(F)cc2)c1-c1ccnc(NC(=O)CCC2CCCC2)c1
7,179,COCCn1c(SC)nc(-c2ccc(F)cc2)c1-c1ccnc(NC(=O)CCC(C)C)c1
8,156,COCCn1c(SC)nc(-c2ccc(F)cc2)c1-c1ccnc(NC(=O)C2CCCCC2)c1
9,103,COCCn1c(SC)nc(-c2ccc(F)cc2)c1-c1ccnc(NC(=O)CC(C)C)c1
10,458,COCCn1c(SC)nc(-c2ccc(F)cc2)c1-c1ccnc(NC(=O)C2CCCC2)c1
11,311,CCC(C)C(=O)Nc1cc(-c2c(-c3ccc(F)cc3)nc(SC)n2CCOC)ccn1 (stereo not given)
12,196,COCCn1c(SC)nc(-c2ccc(F)cc2)c1-c1ccnc(NC(=O)CCC2CCCCC2)c1
13,83,CCCCC(=O)Nc1cc(-c2c(-c3ccc(F)cc3)nc(SC)n2CCOC)ccn1
14,108,COCCn1c(SC)nc(-c2ccc(F)cc2)c1-c1ccnc(NC(C)=O)c1
15,128,COCCn1c(SC)nc(-c2ccc(F)cc2)c1-c1ccnc(NC(=O)C2CC2)c1
